Source: US10662193B2, “Carbazole and carboline compounds for use in the diagnosis, treatment, alleviation or prevention of disorders associated with amyloid or amyloid-like proteins” (AC IMMUNE SA, priority 2014, dated 2020)
pKi: −log10 of the molar value.

Legend:
AD brain-enriched PHF = AD brain-enriched PHF (Homo sapiens, UniProt P10636); test: Assay 2 (filter trap): [3H]RefA radio-binding competition assay and Ki on PHF; conditions: [^3H]RefA 10 nM; for inhibition at 2.5 µM: compound 2.5 μM, no Ki determined; for pKi: PHF diluted 1/80, compound 0.12 nM to 50 μM
Chain of AD brain-enriched PHF (P10636 623-708 limits assumed): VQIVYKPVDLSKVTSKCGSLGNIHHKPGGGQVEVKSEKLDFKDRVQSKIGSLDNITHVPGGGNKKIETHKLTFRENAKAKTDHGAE
Protocol: Displacement of [^3H]RefA by Compounds of this Invention
50 g of frontal lobe tissue from post-mortem brain of an Alzheimer's disease (AD) patient were obtained from the London Tissue Bank. The patient was a […] and died […]. The brain sample was collected 5 hours post-mortem and characterized for Braak disease stage (Braak, H.; Braak, E. Acta Neuropathol., 1991, 82, 239-259) as stage VI. For the enrichment of PHF's, around 15 g of the AD human brain was thawed on ice and homogenized with 50 ml of homogenization buffer [0.75 M NaCl in RAB buffer (100 mM 2-(N-morpholino) ethanesulfonic acid (MES), 1 mM EGTA, 0.5 mM MgSO4, 2 mM DTT, pH 6.8) supplemented with protease inhibitors (Complete; Roche 11697498001) in a glass Dounce homogenizer. The homogenate was then incubated at 4° C. for 20 min to let any residual microtubules depolymerize, before the homogenate was transferred into polycarbonate centrifuge bottles (16×76 mm; Beckman 355603) and centrifuged at 11,000 g (12,700 RPM) in an ultracentrifuge (Beckman, XL100K) for 20 min at 4° C. using the pre-cooled 70.1 rotor (Beckman, 342184). Pellets were kept on ice. Supernatants were pooled into polycarbonate bottles and centrifuged again at 100,000 g (38,000 RPM) for 1 h at 4° C. in the 70.1 Ti rotor to isolate PHF-rich pellets, whereas soluble tau remained in the supernatants. The pellets from the first and second centrifugations were re-suspended in 120 mL of extraction buffer [10 mM Tris-HCl pH 7.4, 10% sucrose, 0.85 M NaCl, 1% protease inhibitor (Calbiochem 539131), 1 mM EGTA, 1% phosphatase inhibitor (Sigma P5726 and P0044)]. The solution was then transferred into polycarbonate centrifuge bottles (16×76 mm; Beckman 355603) and centrifuged at 15,000 g (14,800 RPM) in an ultracentrifuge (Beckman, XL100K) for 20 min at 4° C. using the 70.1 Ti rotor. In the presence of 10% sucrose and at low speed centrifugation, most PHF remained in the supernatant whereas intact or fragmented NFTs and larger PHF aggregates were pelleted. The pellets were discarded. 20% Sarkosyl (Sigma L7414-10ML) was added to the supernatants to a final concentration of 1% and stirred at room temperature for 1 h. This solution was then centrifuged into polycarbonate bottles at 100,000 g (38,000 RPM) for 1 h at 4° C. in the 70.1 Ti rotor, and the pellets containing PHF-rich material were re-suspended in a total final volume of 1.5 mL of PBS, aliquoted and stored at −80° C.
[^3H]RefA Radio-Binding Competition Assay
AD brain-enriched PHF diluted 1/80 were incubated in the presence of [^3H]RefA at 10 nM and the example compounds of this invention at 2.5 μM (250× excess), for 45 minutes at 37° C. Samples were then analyzed by on GF/B filter plates as described above (in the section “[^3H]RefA radio-binding assay and determination of the dissociation constant (Kd)). Non-specific signal was determined again with an excess of un-labeled RefA and specific binding calculated by subtracting the non-specific signal from the total signal. Competition was calculated as percent, where 0% was defined as the specific binding in the presence of vehicle (2.8% DMSO in PBS) and 100% as the values obtained in the presence of excess cold RefA. Similar assays were performed to determine the competition of the cold compounds on [^3H]RefA on in vitro aggregated recombinant human tau or Abeta1-42 For both recombinant proteins, 20 μg/mL of aggregates were incubated with 10 nM of [^3H]RefA for recombinant human tau or 80 nM of [^3H]RefA for recombinant human Abeta1-42.
Determination of the Binding Affinity (Ki)
Samples were then analyzed on GF/B filter plates as described above and Ki values calculated using Prism V5 (GraphPad).

[1] = system: tau tangles/Aβ plaques on AD brain sections; test: Assay 1: direct staining of human Alzheimer's disease brain sections (fluorescence); assay type: binding; design: key to Direct staining of tau tangles/Aβ plaques on AD brain sections at 100 μM / Direct staining of tau tangles on AD brain sections at 100 μM / Direct staining of Aβ plaques on AD brain sections at 100 μM / Direct staining of tau tangles on AD brain sections (footnote a: at 250 μM): − (No); +++ (strong); ++ (good); + (weak); conditions: for Direct staining of tau tangles/Aβ plaques on AD brain sections at 100 μM: human AD brain sections, fluorescence, cell does not say tangles or plaques
Protocol: Assay 1 (Fluorescence Based Assay):
(§1) Direct Binding of Compounds of this Invention to Human Alzheimer's Disease Brain Sections and/or Displacement of RefA and Compound B
(§2) Frozen sections with a thickness of […] from the amygdala of donors diagnosed with Braak stage V-VI Alzheimer's Disease (Braak, H.; Braak, E. Acta Neuropathol., 1991, 82, 239-259), were purchased from a commercial provider (Tissue Solutions) and kept at −80° C. until use.
Direct Staining of Human Alzheimer's Disease Brain Sections
Brain sections were encircled with pap pen liquid blocker to reduce the volume of solution for the different incubations. Sections were fixed for 15 min at 4° C. with 4% paraformaldehyde and washed three times 5 minutes with PBS at room temperature. […] To reduce the auto-fluorescence of the tissue, the sections were incubated in a solution of 0.1% Sudan Black (Sigma 199664) in 70% ethanol for 15 min at room temperature in the dark, washed four times for 5 minutes with PBS, and mounted using ProLong Gold Antifade reagent (Invitrogen P36930). Sections were then analyzed on the Nikon Eclipse Ti microscope to detect staining and imaged using Nikon DS-Fi2 camera and NIS-Element AR4.13.1 software.

[2] = system: Aβ plaques on AD brain section; test: Assay 1: displacement of Compound B on human AD brain sections (fluorescence); assay type: binding
Protocol: Direct Binding of Compounds of this Invention to Human Alzheimer's Disease Brain Sections and/or Displacement of RefA and Compound B Frozen sections with a thickness of […] from the amygdala of donors diagnosed with Braak stage V-VI Alzheimer's Disease (Braak, H.; Braak, E. Acta Neuropathol., 1991, 82, 239-259), were purchased from a commercial provider (Tissue Solutions) and kept at -80° C. until use. Displacement of RefA and Compound B Brain sections were mainly treated as described above. Test compounds were, however, incubated on the section at 250 μM in 50% ethanol for 20 min at room temperature, and then directly incubated with the fluorescent reference compounds RefA and Compound B, each at 1 μM in 50% ethanol for 20 min at room temperature. RefA and Compound B stainings were visualized using the 470 nm and 365 nm excitation filters, respectively. Images were acquired, and tangles and plaques quantified using the NIS-Element software. Only those compounds not directly staining tangles or plaques at the same wavelengths as RefA and Compound B were tested in the displacement assay. Structure of Compound B (prepared by a similar procedure described for […] in WO2010/011964): […]

[3] = system: tau tangles on AD brain section; test: Assay 1: displacement of RefA on human AD brain sections (fluorescence); assay type: binding; conditions: for Selectivity (tau/Abeta): ratio of competition on tau tangles to competition on Aβ plaques
Protocol: as §1, §2
Displacement of RefA and Compound B
Brain sections were mainly treated as described above. Test compounds were, however, incubated on the section at 250 μM in 50% ethanol for 20 min at room temperature, and then directly incubated with the fluorescent reference compounds RefA and Compound B, each at 1 μM in 50% ethanol for 20 min at room temperature. RefA and Compound B stainings were visualized using the 470 nm and 365 nm excitation filters, respectively. Images were acquired, and tangles and plaques quantified using the NIS-Element software. Only those compounds not directly staining tangles or plaques at the same wavelengths as RefA and Compound B were tested in the displacement assay.
Structure of RefA (Tago et al., J. Label. Compd. Radiopharm. 2013, DOI: 10.1002/jlcr.3133)

| SMILES | inhibition at 2.5 µM (AD brain-enriched PHF) [%] | Direct staining of tau tangles on AD brain sections at 100 μM ([1]; 100 μM compound, tangles) | pKi (AD brain-enriched PHF) | Competition on AD brain section Aβ plaques (1 μM Compound B vs 250 μM compound) [2] [%] | Competition on AD brain section tau tangles (1 μM RefA vs. 250 μM compound) [3] | Selectivity (tau/Abeta) [3] | Direct staining of tau tangles/Aβ plaques on AD brain sections at 100 μM ([1]; 100 μM compound) | Direct staining of Aβ plaques on AD brain sections at 100 μM ([1]; 100 μM compound, plaques) | Direct staining of tau tangles on AD brain sections (footnote a: at 250 μM) ([1]; 250 μM compound, tangles) |
| --- | --- | --- | --- | --- | --- | --- | --- | --- | --- |
| Cn1c2ccncc2c2ccc(Nc3ccc(C#N)c(F)c3)nc21 [Example 17] | < 50 | +++ (tangles) |  |  |  |  |  |  |  |
| Cn1c2ccncc2c2ccc(Nc3cc(F)cc(N4CCOCC4)c3)nc21 [Example 7] |  | ++ (tangles) | 6.49 | 0 | 84% | >84 fold |  |  |  |
| CN1CCc2c(c3ccc(Nc4ccc5ncn(C)c5c4)nc3n2C)C1=O [Example 172] | < 50 |  |  |  | 16% |  | − |  |  |
| Cn1c2ccncc2c2ccc(Nc3cccc(OCCOCCF)c3)nc21 [Example 95] |  | ++ (tangles) |  | 59 |  |  |  |  |  |
| Cn1c2ccncc2c2ccc(Nc3cncc(OCCOCCF)c3)nc21 [Example 65] |  | ++ (tangles) |  | 35 |  |  |  |  |  |
| Cn1c2ccncc2c2ccc(Nc3ccc(F)c(C#N)c3)nc21 [Example 6] | < 50 | +++ (tangles) |  |  |  |  |  |  |  |
| Cn1c2ccncc2c2ccc(N3CCC(CCOCCF)CC3)nc21 [Example 155] |  | + (tangles) + (plaques) |  | 15 | 90% | ~6-fold |  | + (tangles) + (plaques) |  |
| Cn1c2ccncc2c2ccc(Nc3ccc(F)c(N4CCOCC4)c3)nc21 [Example 3] |  |  | 6.63 | 8 | 78% | ~9.8 fold | − |  |  |
| Cn1c2ccncc2c2ccc(Nc3cc(F)ccc3N3CCOCC3)nc21 [Example 16] | < 50 |  |  |  |  |  | − |  |  |
| Cn1c2ccncc2c2ccc(Nc3cccc(OCCF)n3)nc21 [Example 44] |  | ++ (tangles) |  | −21 | 88% | >88 fold |  |  |  |
| Cn1c2ccncc2c2ccc(Nc3cncc(OCCF)c3)nc21 [Example 59] |  | +++ (tangles) |  | −9 | 93%. | >93 fold |  |  |  |
| Cn1c2ccncc2c2ccc(Nc3cccc(N4CCOCC4)c3F)nc21 [Example 12] |  |  | 6.78 | 0 | 98% | >98 fold | − |  |  |
| Cn1c2ccncc2c2ccc(Nc3ccc(F)cc3N3CCOCC3)nc21 [Example 5] |  |  | 6.52 | 12 | 0% |  | − |  |  |
| Cn1c2ccncc2c2ccc(Nc3cc(N4CCOCC4)ccc3F)nc21 [Example 10] | < 50 |  |  |  |  |  | − |  |  |
| Cn1c2ccncc2c2ccc(N3CCC(CCF)CC3)nc21 [Example 151] |  |  |  | 42 | 99% | ~2.4-fold | − |  |  |
| Cn1c2ccncc2c2ccc(Nc3cccc(OCCOCCOCCF)c3)nc21 [Example 96] |  | ++ (tangles) |  | 18 |  |  |  |  |  |
| Cn1c2ccncc2c2ccc(Nc3ccc(OC(F)F)nc3)nc21 [Example 11] |  | ++ (tangles) | 6.73 |  |  |  |  |  |  |
| Cn1c2ccncc2c2ccc(N3CCOC[C@H]3CF)nc21 [Example 150] |  |  |  | 3 | 18% |  |  |  | + (tangles)^a |
| CN1CCc2c(c3ccc(Nc4ccc5c(c4)OCO5)nc3n2C)C1=O [Example 170] | < 50 |  |  |  | 20% |  | − |  |  |
| Cn1c2c(c3ccc(Nc4ccc(F)c(F)c4)nc31)C(=O)NCC2 [Example 174] | < 50 |  |  |  |  |  | − |  |  |
